Assay results: patent US20080058324A1, “Alpha-Keto Carbonyl Calpain Inhibitors” (SANTHERA PHARMACEUTICALS (SCHWEIZ) AG, priority 2004, published 2008)

What was measured:
[1] = biological target: T1, human μ-calpain (Homo sapiens, UniProt P07384); assay: Enzymatic Calpain Inhibition Assay; assay type: biochemical; conditions: read-out: Calp I IC50
T1 construct: purchased Calbiochem
T1 sequence (P07384 1-714): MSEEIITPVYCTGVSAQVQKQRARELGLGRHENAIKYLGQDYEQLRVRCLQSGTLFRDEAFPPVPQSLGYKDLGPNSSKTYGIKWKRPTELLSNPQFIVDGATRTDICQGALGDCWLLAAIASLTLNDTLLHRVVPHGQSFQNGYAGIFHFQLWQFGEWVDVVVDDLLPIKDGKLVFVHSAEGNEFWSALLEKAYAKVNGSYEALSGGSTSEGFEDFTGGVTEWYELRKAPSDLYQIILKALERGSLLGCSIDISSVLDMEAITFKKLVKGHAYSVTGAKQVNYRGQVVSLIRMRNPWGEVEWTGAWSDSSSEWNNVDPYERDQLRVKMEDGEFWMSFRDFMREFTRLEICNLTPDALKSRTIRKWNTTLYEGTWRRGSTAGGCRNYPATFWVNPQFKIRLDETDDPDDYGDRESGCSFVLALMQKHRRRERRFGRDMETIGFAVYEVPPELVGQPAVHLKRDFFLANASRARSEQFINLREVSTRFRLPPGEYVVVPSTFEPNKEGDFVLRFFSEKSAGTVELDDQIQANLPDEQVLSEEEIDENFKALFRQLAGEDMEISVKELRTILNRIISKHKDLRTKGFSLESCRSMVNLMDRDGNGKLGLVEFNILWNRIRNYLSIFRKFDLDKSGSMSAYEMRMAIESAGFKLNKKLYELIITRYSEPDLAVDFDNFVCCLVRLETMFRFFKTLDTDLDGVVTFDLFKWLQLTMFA
T1 sequence (P04632 1-268 partner): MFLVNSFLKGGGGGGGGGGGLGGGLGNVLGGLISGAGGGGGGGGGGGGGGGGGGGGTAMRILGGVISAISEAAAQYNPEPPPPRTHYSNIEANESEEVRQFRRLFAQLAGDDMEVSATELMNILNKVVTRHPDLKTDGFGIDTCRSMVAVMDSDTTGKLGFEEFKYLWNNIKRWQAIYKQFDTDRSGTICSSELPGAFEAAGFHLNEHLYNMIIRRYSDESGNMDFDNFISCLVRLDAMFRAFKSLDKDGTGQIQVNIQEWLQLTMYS
Protocol: The Ki value was also determined in some cases. These criteria were used to measure the inhibitory effect of the compounds (I) on calpain I, calpain II and cathepsin B.
The inhibitory properties of calpain inhibitors are tested in 100 μl of a buffer containing 100 mM imidazole pH 7.5, 5 mM L-Cystein-HCl, 5 mM CaCl2, 250 μM of the calpain fluorogenic substrate Suc-Leu-Tyr-AMC (Sigma) (Sasaki et al., J. Biol. Chem., 1984, 259, 12489-12949) dissolved in 2.5 μl DMSO and 0.5 μg of human μ-calpain (Calbiochem). The inhibitors dissolved in 1 μl DMSO are added to the reaction buffer. The fluorescence of the cleavage product 7-amino-4-methylcoumarin (AMC) is followed in a SPECTRAmax GEMINI XS (Molecular Device) fluorimeter at λex=360 nm and λem=440 nm at 30° C. during 30 min at intervals of 30 sec in 96-well plates (Greiner). The initial reaction velocity at different inhibitor concentrations is plotted against the inhibitor concentration and the IC50 values determined graphically.

[2] = biological target: T2, 20S Proteasome (Oryctolagus cuniculus, UniProt G1T4Q9); assay: 20S Proteasome Assay; assay type: biochemical, Rabbit; conditions: read-out: 20S Prot IC50
T2 sequence (G1T4Q9 60-263): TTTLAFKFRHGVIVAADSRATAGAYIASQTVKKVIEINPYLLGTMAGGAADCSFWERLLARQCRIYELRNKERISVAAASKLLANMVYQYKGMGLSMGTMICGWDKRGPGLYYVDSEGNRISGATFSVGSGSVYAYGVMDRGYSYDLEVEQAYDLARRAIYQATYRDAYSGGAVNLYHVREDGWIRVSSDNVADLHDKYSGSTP
Protocol: 25 μl of a reaction buffer containing 400 μM of the fluorogenic substrate Suc-Leu-Leu-Val-Tyr-AMC (Bachem) are dispensed per well of a white microtiter plate. Test compounds dissolved in 0.5 μl DMSO are added. To start the reaction; 25 μl of reaction buffer containing 35 ng of enzyme (20S Proteasome, Rabbit, Calbiochem) are added. The increase in fluorescence (excitation at 360 nm; emission at 440 nm) is measured over 30 min at 30° C. at 30″. The IC50's are then determined from the slopes.

[3] = test system: Primary fibroblasts from donors with Friedreich Ataxia (FRDA); assay: BSO Assay (cell viability of Friedreich Ataxia fibroblasts under BSO oxidative stress); assay type: cell-based; conditions: Homo sapiens, Fibroblast
Protocol: Primary fibroblasts were derived from donors with molecular diagnosis for Friedreich Ataxia (FRDA) and control donors with no mitochondrial disease. Cell lines were obtained from Coriell Cell Repositories (Camden, N.J.; catalog numbers GM04078, GM08402 and GM08399 respectively). All cell types were diagnosed on the molecular level for intronic GAA triplet repeat length of at least 400-450 repeats using a PCR-based method. Experiments were carried out as described in the literature (M. L. Jauslin et al., Human Mol. Genet., 2002, 11, 3055-3063): Cells were seeded in microtiter plates at a density of 4′000 cells per 100 μl in growth medium consisting of 25% (v/v) M199 EBS and 64% (v/v) MEM EBS without phenol red (Bioconcept, Allschwil, Switzerland) supplemented with 10% (v/v) fetal calf serum (PAA Laboratories, Linz, Austria), 100 U/ml penicillin, 100 μg/ml streptomycin (PAA Laboratories, Linz, Austria), 10 μg/ml insulin (Sigma, Buchs, Switzerland), 10 ng/ml EGF (Sigma, Buchs, Switzerland), 10 ng/ml bFGF (PreproTech, Rocky Hill, N.J.) and 2 mM glutamine (Sigma, Buchs, Switzerland). The cells were incubated in the presence of various test compounds for 24 h before addition of L-buthionine-(S,R)-sulfoximine (BSO) to a final concentration of 1 mM. Cell viability was measured after the first signs of toxicity appeared in the BSO-treated controls (typically after 16 to 48 h). The cells were stained for 60 min at room temperature in PBS with 1.2 μM calceinAM and 4 μM ethidium homodimer (Live/Dead assay, Molecular Probes, Eugene, Oreg.). Fluorescence intensity was measured with a Gemini Spectramax XS spectrofluorimeter (Molecular Devices, Sunnyvale, Calif.) using excitation and emission wavelengths of 485 nm and 525 nm respectively.

Row | IC50 [1] [nM] | IC50 [2] [nM] | SMILES | EC50 [3] [nM]
1 | 45 | 120 | CCNC(=O)C(=O)[C@H](Cc1ccc(Cl)cc1)NC(=O)[C@@H](NC(=O)[C@H](Cc1ccccc1)NC(=O)CCCCc1cccs1)C(C)C [Example 1] | 700
2 | 300 | < 10 | CCNC(=O)C(=O)C(Cc1ccc(Cl)cc1)NC(=O)C(NC(=O)C(Cc1cccc2ccccc12)NC(=O)CCCCc1cccs1)C(C)C (stereo not drawn) [Example 22] | 10
3 | 15 | 23 | CCNC(=O)C(=O)C(Cc1ccc(OC)cc1)NC(=O)C(NC(=O)C(CCc1ccccc1)NC(=O)CCc1cccs1)C(C)C (stereo not drawn) [Example 520] | < 1
